Results as given in US11178873B2, “Cyclic N-carboxamide compounds useful as herbicides” (FMC CORPORATION, priority 2015, dated 2021).

How the values were obtained:
Assay type in all cases: in vivo
[1] = system: ragweed (common ragweed, Ambrosia elatior); test: Test A postemergence, ragweed; conditions: 0 to 100 scale, 0 no effect, 100 complete control
Source text: (§1) Seeds of plant species selected from barnyardgrass (Echinochloa crus-galli), crabgrass, large (large crabgrass, Digitaria sanguinalis), kochia (Kochia scoparia), ragweed (common ragweed, Ambrosia elatior), morningglory (Ipomoea spp.), velvetleaf (Abutilon theophrasti), ryegrass, Italian (Italian ryegrass, Lolium multiflorum), foxtail, giant (giant foxtail, Setaria faberii), wheat (Triticum aestivum), corn (Zea mays), and pigweed (Amaranthus retroflexus), were planted into a blend of loam soil and sand and treated preemergence with a directed soil spray using test chemicals formulated in a non-phytotoxic solvent mixture which included a surfactant. At the same time, plants selected from these crop and weed species and also blackgrass (Alopecurus myosuroides), and galium (catchweed bedstraw, Galium aparine), were planted in pots containing the same blend of loam soil and sand and treated with postemergence applications of test chemicals formulated in the same manner. Plants ranged in height from 2 to 10 cm and were in the one- to two-leaf stage for the postemergence treatment. Treated plants and untreated controls were maintained in a greenhouse for approximately 10 d, after which time all treated plants were compared to untreated controls and visually evaluated for injury. Plant response ratings, summarized in Table A, are based on a 0 to 100 scale where 0 is no effect and 100 is complete control. A dash (-) response means no test result.

[2] = system: ducksalad (Heteranthera limosa); test: Test B flooded paddy test, ducksalad; conditions: Flood, 500 g ai/ha; scale 0 to 100 (0 no effect, 100 complete control); 13 to 15 d
Protocol: (§2) Plant species in the flooded paddy test selected from rice (Oryza sativa), sedge, umbrella (small-flower umbrella sedge, Cyperus difformis), ducksalad (Heteranthera limosa), and barnyardgrass (Echinochloa crus-galli) were grown to the 2-leaf stage for testing. At time of treatment, test pots were flooded to 3 cm above the soil surface, treated by application of test compounds directly to the paddy water, and then maintained at that water depth for the duration of the test. Treated plants and controls were maintained in a greenhouse for 13 to 15 d, after which time all species were compared to controls and visually evaluated. Plant response ratings, summarized in Table B, are based on a scale of 0 to 100 where 0 is no effect and 100 is complete control. A dash (-) response means no test result.

[3] = system: barnyardgrass (Echinochloa crus-galli); test: Test A preemergence, barnyardgrass; conditions: 0 to 100 scale, 0 no effect, 100 complete control
Source text: as §1

[4] = system: wheat (Triticum aestivum); test: Test A postemergence, wheat; conditions: 0 to 100 scale, 0 no effect, 100 complete control
Source text: as §1

[5] = system: barnyardgrass (Echinochloa crus-galli); test: Test B flooded paddy test, barnyardgrass; conditions: Flood, 500 g ai/ha; scale 0 to 100 (0 no effect, 100 complete control); 13 to 15 d
Protocol: as §2

[6] = system: foxtail, giant (giant foxtail, Setaria faberii); test: Test A preemergence, foxtail, giant; conditions: 0 to 100 scale, 0 no effect, 100 complete control
Source text: as §1

[7] = system: ryegrass, Italian (Italian ryegrass, Lolium multiflorum); test: Test A postemergence, ryegrass, Italian; conditions: 0 to 100 scale, 0 no effect, 100 complete control
Source text: as §1

kochia (Kochia scoparia) [8] = test: Test A preemergence, kochia; conditions: 0 to 100 scale, 0 no effect, 100 complete control
Source text: as §1

[9] = system: galium (catchweed bedstraw, Galium aparine); test: Test A postemergence, galium; conditions: 0 to 100 scale, 0 no effect, 100 complete control
Source text: as §1

[10] = system: ryegrass, Italian (Italian ryegrass, Lolium multiflorum); test: Test A preemergence, ryegrass, Italian; conditions: 0 to 100 scale, 0 no effect, 100 complete control
Source text: as §1

[11] = system: pigweed (Amaranthus retroflexus); test: Test A postemergence, pigweed; conditions: 0 to 100 scale, 0 no effect, 100 complete control
Source text: as §1

[12] = system: pigweed (Amaranthus retroflexus); test: Test A preemergence, pigweed; conditions: 0 to 100 scale, 0 no effect, 100 complete control
Source text: as §1

kochia (Kochia scoparia) [13] = test: Test A postemergence, kochia; conditions: 0 to 100 scale, 0 no effect, 100 complete control
Source text: as §1

corn (Zea mays) = test: Test A postemergence, corn; conditions: 0 to 100 scale, 0 no effect, 100 complete control
Source text: as §1

rice (Oryza sativa) = test: Test B flooded paddy test, rice; conditions: Flood, 500 g ai/ha; scale 0 to 100 (0 no effect, 100 complete control); 13 to 15 d
Protocol: as §2

[14] = system: ragweed (common ragweed, Ambrosia elatior); test: Test A preemergence, ragweed; conditions: 0 to 100 scale, 0 no effect, 100 complete control
Source text: as §1

[15] = system: blackgrass (Alopecurus myosuroides); test: Test A postemergence, blackgrass; conditions: 0 to 100 scale, 0 no effect, 100 complete control
Source text: as §1

[16] = system: foxtail, giant (giant foxtail, Setaria faberii); test: Test A postemergence, foxtail, giant; conditions: 0 to 100 scale, 0 no effect, 100 complete control
Source text: as §1

[17] = system: sedge, umbrella (small-flower umbrella sedge, Cyperus difformis); test: Test B flooded paddy test, sedge, umbrella; conditions: Flood, 500 g ai/ha; scale 0 to 100 (0 no effect, 100 complete control); 13 to 15 d
Protocol: as §2

[18] = system: barnyardgrass (Echinochloa crus-galli); test: Test A postemergence, barnyardgrass; conditions: 0 to 100 scale, 0 no effect, 100 complete control
Source text: as §1

SMILES: O=C1NCC(c2ccc(F)c(F)c2)N1C(=O)Nc1cccc(F)c1F (stereo not drawn) [Compound 11, N-(2,3-difluorophenyl)-5-(3,4-difluorophenyl)-2-oxo-1-imidazolidinecarboxamide]
- Plant response rating, Ragweed ([1]; 125 g ai/ha): 0
- Plant response rating, Ragweed ([1]; 500 g ai/ha): 0
- Plant response rating, Ducksalad [2]: 60
- Plant response rating, Barnyardgrass ([3]; 125 g ai/ha): 0
- Plant response rating, Barnyardgrass ([3]; 500 g ai/ha): 40
- Plant response rating, Wheat ([4]; 125 g ai/ha): 0
- Plant response rating, Wheat ([4]; 500 g ai/ha): 0
- Plant response rating, Barnyardgrass [5]: 0
- Plant response rating, Foxtail, Giant ([6]; 125 g ai/ha): 0
- Plant response rating, Foxtail, Giant ([6]; 500 g ai/ha): 80
- Plant response rating, Ryegrass, Italian ([7]; 125 g ai/ha): 0
- Plant response rating, Ryegrass, Italian ([7]; 500 g ai/ha): 0
- Plant response rating, Kochia (kochia (Kochia scoparia) [8]; 125 g ai/ha): 0
- Plant response rating, Kochia (kochia (Kochia scoparia) [8]; 500 g ai/ha): 30
- Plant response rating, Galium ([9]; 125 g ai/ha): 0
- Plant response rating, Galium ([9]; 500 g ai/ha): 0
- Plant response rating, Ryegrass, Italian ([10]; 125 g ai/ha): 0
- Plant response rating, Ryegrass, Italian ([10]; 500 g ai/ha): 30
- Plant response rating, Pigweed ([11]; 125 g ai/ha): 0
- Plant response rating, Pigweed ([11]; 500 g ai/ha): 0
- Plant response rating, Pigweed ([12]; 125 g ai/ha): 0
- Plant response rating, Pigweed ([12]; 500 g ai/ha): 0
- Plant response rating, Kochia (kochia (Kochia scoparia) [13]; 125 g ai/ha): 0
- Plant response rating, Kochia (kochia (Kochia scoparia) [13]; 500 g ai/ha): 0
- Plant response rating, Corn (corn (Zea mays); 125 g ai/ha): 0
- Plant response rating, Corn (corn (Zea mays); 500 g ai/ha): 0
- Plant response rating, Rice (rice (Oryza sativa)): 0
- Plant response rating, Ragweed ([14]; 125 g ai/ha): 0
- Plant response rating, Ragweed ([14]; 500 g ai/ha): 0
- Plant response rating, Blackgrass ([15]; 125 g ai/ha): 0
- Plant response rating, Blackgrass ([15]; 500 g ai/ha): 0
- Plant response rating, Foxtail, Giant ([16]; 125 g ai/ha): 0
- Plant response rating, Foxtail, Giant ([16]; 500 g ai/ha): 30
- Plant response rating, Sedge, Umbrella [17]: 0
- Plant response rating, Barnyardgrass ([18]; 125 g ai/ha): 0
- Plant response rating, Barnyardgrass ([18]; 500 g ai/ha): 20
